Reference: the supplement of paper PMC4862054
Where “and” joins values, the source holds several entries; their conditions need not be identical. Equal values may be shown once.

Key:
Conditions in all cases: incubation time: 72 h
CAL-148 = test: normalised viability (% of control), CellTiter-Blue; higher = more viable cells (about 100 = DMSO control)
Experimental: (§1)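 DSRT, CellTiter-Blue viability, 72 h incubation. Signal is normalised to DMSO and benzethonium chloride controls. Value is the normalised response at dose 3.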

MDA-MB-231 [1] = test: as above
Experimental: as §1

HCC1599 [2] = test: as above
Experimental: as §1

SK-BR-3 [3] = test: as above
Experimental: as §1

CAL-120 [4] = test: as above
Experimental: as §1

MDA-MB-468 [5] = test: as above
Experimental: as §1

MFM-223 [6] = test: as above
Experimental: as §1

MDA-MB-453 [7] = test: as above
Experimental: as §1

HDQ-P1 [8] = test: as above
Experimental: as §1

HCC1143 [9] = test: as above
Experimental: as §1

MDA-MB-436 = test: as above
Experimental: as §1

CAL-85-1 [10] = test: as above
Experimental: as §1

BT-474 [11] = test: as above
Experimental: as §1

MDA-MB-231 [12] = test: drug sensitivity score (DSS), CellTiter-Blue viability (DSS (AUC-based score)); higher = stronger viability inhibition; extreme values may be limits of the assay
Experimental: (§2)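 DSRT with the CellTiter-Blue (resazurin reduction) viability readout, fluorescence 560/590 nm, 72 h incubation. Plates were normalised to DMSO and benzethonium chloride controls. DSS is computed from the area under the fitted dose-response curve (5 or 9 concentrations).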

DU-4475 = test: as above
Experimental: as §2

HCC1599 [13] = test: as above
Experimental: as §2

HCC1937 = test: as above
Experimental: as §2

Hs578T = test: as above
Experimental: as §2

BT-549 = test: as above
Experimental: as §2

SK-BR-3 [14] = test: as above
Experimental: as §2

CAL-120 [15] = test: as above
Experimental: as §2

MDA-MB-468 [16] = test: as above
Experimental: as §2

MFM-223 [17] = test: as above
Experimental: as §2

MDA-MB-453 [18] = test: as above
Experimental: as §2

HDQ-P1 [19] = test: as above
Experimental: as §2

HCC1143 [20] = test: as above
Experimental: as §2

CAL-85-1 [21] = test: as above
Experimental: as §2

BT-474 [22] = test: as above
Experimental: as §2

| Compound | normalised viability (CAL-148; 10 nM) | normalised viability (MDA-MB-231 [1]; 100 nM) | normalised viability (HCC1599 [2]; 100 nM) | normalised viability (SK-BR-3 [3]; 100 nM) | normalised viability (CAL-120 [4]; 100 nM) | normalised viability (MDA-MB-468 [5]; 100 nM) | normalised viability (MFM-223 [6]; 100 nM) | drug sensitivity score (MDA-MB-231 [12]) | drug sensitivity score (DU-4475) | drug sensitivity score (HCC1599 [13]) | drug sensitivity score (HCC1937) | drug sensitivity score (Hs578T) | drug sensitivity score (BT-549) | drug sensitivity score (CAL-120 [15]) | drug sensitivity score (MDA-MB-468 [16]) | drug sensitivity score (MFM-223 [17]) | drug sensitivity score (HDQ-P1 [19]) | drug sensitivity score (HCC1143 [20]) | drug sensitivity score (CAL-85-1 [21]) | drug sensitivity score (BT-474 [22]) | also measured |
| --- | --- | --- | --- | --- | --- | --- | --- | --- | --- | --- | --- | --- | --- | --- | --- | --- | --- | --- | --- | --- | --- |
| Cc1c(N)nc([C@H](CC(N)=O)NC[C@H](N)C(N)=O)nc1C(=O)N[C@H](C(=O)N[C@H](C)[C@@H](O)[C@H](C)C(=O)N[C@H](C(=O)NCCc1nc(-c2nc(C(=O)NCCC[S+](C)C)cs2)cs1)[C@@H](C)O)[C@@H](OC1OC(CO)C(O)C(O)C1OC1OC(CO)C(O)C(OC(N)=O)C1O)c1cnc[nH]1 (stereo partly specified) [Bleomycin] | 77.6% | 81.8% | 134% | 90.8% | 86.3% | 86.5% | 99.5% | 6.41 | 0 | 0 | 9.75 | 11.3 | 13.6 | 3.15 | 0 | 0 | 0 | 9.95 | 0 | 0 | normalised viability (MDA-MB-453 [7]; 10 nM): 102%; normalised viability (HDQ-P1 [8]; 10 nM): 82.3%; normalised viability (HCC1143 [9]; 100 nM): 74.7%; normalised viability (MDA-MB-436; 100 nM): 88.2%; normalised viability (CAL-85-1 [10]; 10 nM): 107%; normalised viability (BT-474 [11]; 100 nM): 96%; drug sensitivity score (SK-BR-3 [14]): 0; drug sensitivity score (MDA-MB-453 [18]): 0 |
| Cc1cc2c(F)c(Oc3ncnn4cc(OC[C@@H](C)O)c(C)c34)ccc2[nH]1 [Brivanib] |  |  |  |  |  |  |  | 0 | 0 | 0 | 0 | 0 | 0 | 0 | 0 | 0 | 0 | 0 | 0 | 0 | normalised viability (CAL-148; 1 nM): 82.3%; normalised viability (MDA-MB-231 [1]; 10 nM): 98.1%; normalised viability (HCC1599 [2]; 10 nM): 96.2%; normalised viability (SK-BR-3 [3]; 10 nM): 75.5%; normalised viability (CAL-120 [4]; 10 nM): 88.2%; normalised viability (MDA-MB-468 [5]; 10 nM): 103%; normalised viability (MFM-223 [6]; 10 nM): 90.1%; normalised viability (MDA-MB-453 [7]; 1 nM): 102%; normalised viability (HDQ-P1 [8]; 1 nM): 94.8%; normalised viability (HCC1143 [9]; 10 nM): 78.8%; normalised viability (MDA-MB-436; 10 nM): 104%; normalised viability (CAL-85-1 [10]; 1 nM): 105%; normalised viability (BT-474 [11]; 10 nM): 102%; drug sensitivity score (SK-BR-3 [14]): 0; drug sensitivity score (MDA-MB-453 [18]): 0 |
| CCCCCOC(=O)Nc1nc(=O)n([C@@H]2O[C@H](C)[C@@H](O)[C@H]2O)cc1F [Capecitabine] | 86.9% and 94.2% | 98.2% and 87% | 123% and 106% | 77.5% and 96.3% | 85.3% and 95.2% | 101% and 111% | 87.7% and 104% | 0 | 0 | 0 | 0 | 0 | 0 | 0 | 0 | 0 | 0 | 0 | 0 | 0 | normalised viability (MDA-MB-453 [7]; 10 nM): 94.8% and 93.2%; normalised viability (HDQ-P1 [8]; 10 nM): 106% and 91.4%; normalised viability (MDA-MB-436; 100 nM): 95.8% and 95.6%; normalised viability (CAL-85-1 [10]; 10 nM): 96.7% and 98.3%; normalised viability (BT-474 [11]; 100 nM): 114% and 99.9% |
